Measurements as given in ChEMBL document CHEMBL1287741, “Synthesis, antiproliferative activity in cancer cells and theoretical studies of novel 6α,7β-dihydroxyvouacapan-17β-oic acid Mannich base derivatives” (2010).
In brackets after ≈: the same amount, converted by molar mass.

Legend:
Format in all cases: functional
UACC-62 = test: Growth inhibition of human UACC62 cells after 48 hrs by sulforhodamine B assay; settings: UACC-62, 48 h
MCF7 = test: Growth inhibition of human MCF7 cells after 48 hrs by sulforhodamine B assay; settings: MCF7, 48 h
NCI/ADR-RES = test: Growth inhibition of human NCI-ADR-RES cells after 48 hrs by sulforhodamine B assay
786-0 = test: Growth inhibition of human 786-0 cells after 48 hrs by sulforhodamine B assay; settings: 786-0, 48 h
NCI-H460 = test: Growth inhibition of human NCI-H460 cells after 48 hrs by sulforhodamine B assay; settings: NCI-H460, 48 h
PC-3 = test: Growth inhibition of human PC3 cells after 48 hrs by sulforhodamine B assay; settings: PC-3, 48 h
OVCAR-3 = test: Growth inhibition of human OVCAR-3 cells after 48 hrs by sulforhodamine B assay; settings: OVCAR-3, 48 h
HT-29 = test: Growth inhibition of human HT-29 cells after 48 hrs by sulforhodamine B assay; settings: HT-29, 48 h
K562 = test: Growth inhibition of human K562 cells after 48 hrs by sulforhodamine B assay; settings: K562, 48 h

SMILES | GI50 (UACC-62) | TGI (UACC-62) | GI50 (MCF7) | TGI (MCF7) | GI50 (NCI/ADR-RES) | TGI (NCI/ADR-RES) | GI50 (786-0) | TGI (786-0) | GI50 (NCI-H460) | TGI (NCI-H460) | GI50 (PC-3) | TGI (PC-3) | GI50 (OVCAR-3) | TGI (OVCAR-3) | GI50 (HT-29) | TGI (HT-29) | GI50 (K562) | TGI (K562)
CCN(CC)Cc1cc2c(o1)C[C@H]1[C@H]3[C@@H](OC(=O)[C@H]23)[C@H](O)[C@H]2C(C)(C)CCC[C@]12C | 0.57 µg/mL (≈ 1.37 µM) | 2.55 µg/mL (≈ 6.14 µM) | 0.27 µg/mL (≈ 0.65 µM) | 1.44 µg/mL (≈ 3.47 µM) | 3.12 µg/mL (≈ 7.51 µM) | 8.15 µg/mL (≈ 19.6 µM) | 2.23 µg/mL (≈ 5.37 µM) | 2.49 µg/mL (≈ 5.99 µM) | 1.35 µg/mL (≈ 3.25 µM) | 3.23 µg/mL (≈ 7.77 µM) | 0.28 µg/mL (≈ 0.674 µM) | 0.58 µg/mL (≈ 1.4 µM) | 2.5 µg/mL (≈ 6.02 µM) | 5.62 µg/mL (≈ 13.5 µM) | 0.32 µg/mL (≈ 0.77 µM) | 1.14 µg/mL (≈ 2.74 µM) | < 0.25 µg/mL | 3.01 µg/mL (≈ 7.24 µM)
CCCN(CCC)Cc1cc2c(o1)C[C@H]1[C@H]3[C@@H](OC(=O)[C@H]23)[C@H](O)[C@H]2C(C)(C)CCC[C@]12C | 2.76 µg/mL (≈ 6.22 µM) | 4.96 µg/mL (≈ 11.2 µM) | 2.5 µg/mL (≈ 5.64 µM) | 5.31 µg/mL (≈ 12 µM) | 2.64 µg/mL (≈ 5.95 µM) | 5.53 µg/mL (≈ 12.5 µM) | 2.5 µg/mL (≈ 5.64 µM) | 3.72 µg/mL (≈ 8.39 µM) | 2.96 µg/mL (≈ 6.67 µM) | 6.01 µg/mL (≈ 13.5 µM) | 2.4 µg/mL (≈ 5.41 µM) | 3.83 µg/mL (≈ 8.63 µM) | 2.36 µg/mL (≈ 5.32 µM) | 3.9 µg/mL (≈ 8.79 µM) | 2.33 µg/mL (≈ 5.25 µM) | 3.35 µg/mL (≈ 7.55 µM) | 2.77 µg/mL (≈ 6.24 µM) | 8.87 µg/mL (≈ 20 µM)
CC(C)CN(Cc1cc2c(o1)C[C@H]1[C@H]3[C@@H](OC(=O)[C@H]23)[C@H](O)[C@H]2C(C)(C)CCC[C@]12C)CC(C)C | 0.86 µg/mL (≈ 1.82 µM) | 5.27 µg/mL (≈ 11.2 µM) | 0.69 µg/mL (≈ 1.46 µM) | 7.4 µg/mL (≈ 15.7 µM) | 0.39 µg/mL (≈ 0.827 µM) | 5.39 µg/mL (≈ 11.4 µM) | 2.5 µg/mL (≈ 5.3 µM) | 16.6 µg/mL (≈ 35.3 µM) | 0.29 µg/mL (≈ 0.615 µM) | 3.2 µg/mL (≈ 6.78 µM) | 0.98 µg/mL (≈ 2.08 µM) | 4.06 µg/mL (≈ 8.61 µM) | 0.28 µg/mL (≈ 0.594 µM) | 1.86 µg/mL (≈ 3.94 µM) | 0.67 µg/mL (≈ 1.42 µM) | 6.91 µg/mL (≈ 14.6 µM) | 5.06 µg/mL (≈ 10.7 µM) | 86.1 µg/mL (≈ 182 µM)
CC1(C)CCC[C@]2(C)[C@H]3Cc4oc(CN5CCCC5)cc4[C@H]4C(=O)O[C@@H]([C@H](O)[C@@H]12)[C@@H]43 | 0.78 µg/mL (≈ 1.89 µM) | 3.05 µg/mL (≈ 7.38 µM) | 1.81 µg/mL (≈ 4.38 µM) | 3.86 µg/mL (≈ 9.33 µM) | 2.5 µg/mL (≈ 6.05 µM) | 6.18 µg/mL (≈ 14.9 µM) | 0.76 µg/mL (≈ 1.84 µM) | 3.98 µg/mL (≈ 9.62 µM) | 2.5 µg/mL (≈ 6.05 µM) | 4.94 µg/mL (≈ 11.9 µM) | 0.34 µg/mL (≈ 0.822 µM) | 1.69 µg/mL (≈ 4.09 µM) | 2.5 µg/mL (≈ 6.05 µM) | 5.28 µg/mL (≈ 12.8 µM) | 0.3 µg/mL (≈ 0.725 µM) | 1.61 µg/mL (≈ 3.89 µM) | 1.58 µg/mL (≈ 3.82 µM) | 23.2 µg/mL (≈ 56.1 µM)
CC1(C)CCC[C@]2(C)[C@H]3Cc4oc(CN5CCCCC5)cc4[C@H]4C(=O)O[C@@H]([C@H](O)[C@@H]12)[C@@H]43 | 2.44 µg/mL (≈ 5.71 µM) | 3.96 µg/mL (≈ 9.26 µM) | 0.88 µg/mL (≈ 2.06 µM) | 3.82 µg/mL (≈ 8.93 µM) | 2.65 µg/mL (≈ 6.2 µM) | 7.1 µg/mL (≈ 16.6 µM) | 2.31 µg/mL (≈ 5.4 µM) | 4.11 µg/mL (≈ 9.61 µM) | 2.5 µg/mL (≈ 5.85 µM) | 4.64 µg/mL (≈ 10.9 µM) | 0.27 µg/mL (≈ 0.631 µM) | 0.78 µg/mL (≈ 1.82 µM) | 2.37 µg/mL (≈ 5.54 µM) | 4.36 µg/mL (≈ 10.2 µM) | 1.76 µg/mL (≈ 4.12 µM) | 2.23 µg/mL (≈ 5.22 µM) | 0.32 µg/mL (≈ 0.748 µM) | 4.55 µg/mL (≈ 10.6 µM)
CC1(C)CCC[C@]2(C)[C@H]3Cc4oc(CN5CCOCC5)cc4[C@H]4C(=O)O[C@@H]([C@H](O)[C@@H]12)[C@@H]43 | 2.5 µg/mL (≈ 5.82 µM) | 4.36 µg/mL (≈ 10.1 µM) | 2.45 µg/mL (≈ 5.7 µM) | 4.77 µg/mL (≈ 11.1 µM) | 2.73 µg/mL (≈ 6.36 µM) | 6.34 µg/mL (≈ 14.8 µM) | 2.37 µg/mL (≈ 5.52 µM) | 4.04 µg/mL (≈ 9.41 µM) | 2.69 µg/mL (≈ 6.26 µM) | 4.05 µg/mL (≈ 9.43 µM) | 0.27 µg/mL (≈ 0.629 µM) | 1.27 µg/mL (≈ 2.96 µM) | 2.6 µg/mL (≈ 6.05 µM) | 8.05 µg/mL (≈ 18.7 µM) | 1.68 µg/mL (≈ 3.91 µM) | 3.68 µg/mL (≈ 8.57 µM) | 2.39 µg/mL (≈ 5.56 µM) | 8.24 µg/mL (≈ 19.2 µM)
CC1(C)CCC[C@@]2(C)C1[C@@H](O)[C@@H]1OC(=O)[C@@H]3c4ccoc4C[C@H]2[C@@H]13 (some centres undefined) | 5.19 µg/mL (≈ 15.7 µM) | 30 µg/mL (≈ 90.8 µM) | 27.7 µg/mL (≈ 83.7 µM) | 214 µg/mL (≈ 647 µM) | 0.35 µg/mL (≈ 1.06 µM) | > 250 µg/mL | 8.87 µg/mL (≈ 26.8 µM) | 37.3 µg/mL (≈ 113 µM) | 2.53 µg/mL (≈ 7.66 µM) | 12.4 µg/mL (≈ 37.7 µM) | 30.8 µg/mL (≈ 93.3 µM) | 91.9 µg/mL (≈ 278 µM) | 0.52 µg/mL (≈ 1.57 µM) | 8.82 µg/mL (≈ 26.7 µM) | 52.5 µg/mL (≈ 159 µM) | > 250 µg/mL | 2.08 µg/mL (≈ 6.29 µM) | > 250 µg/mL
COc1cccc2c1C(=O)c1c(O)c3c(c(O)c1C2=O)C[C@@](O)(C(=O)CO)C[C@@H]3O[C@H]1C[C@H](N)[C@H](O)[C@H](C)O1 [DOXORUBICIN] | 0.09 µg/mL (≈ 0.166 µM) | 0.33 µg/mL (≈ 0.607 µM) | 0.03 µg/mL (≈ 0.0552 µM) | 3.3 µg/mL (≈ 6.07 µM) | 0.33 µg/mL (≈ 0.607 µM) | 6.6 µg/mL (≈ 12.1 µM) | 0.04 µg/mL (≈ 0.0736 µM) | 2.67 µg/mL (≈ 4.91 µM) | < 0.03 µg/mL | 0.9 µg/mL (≈ 1.66 µM) | 0.28 µg/mL (≈ 0.515 µM) | 5.85 µg/mL (≈ 10.8 µM) | 0.08 µg/mL (≈ 0.147 µM) | 2.95 µg/mL (≈ 5.43 µM) | 0.07 µg/mL (≈ 0.129 µM) | 3.9 µg/mL (≈ 7.18 µM) | 0.4 µg/mL (≈ 0.736 µM) | 20.5 µg/mL (≈ 37.7 µM)
